Reference: US20240025875A1, “A COMPOUND AS A THYROID HORMONE BETA RECEPTOR AGONIST AND USE THEREOF” (SUNSHINE LAKE PHARMA CO., LTD., priority 2020, published 2024)

Legend:
TRα = biological target: T1, TRα (Homo sapiens, UniProt P10827); test: LanthaScreen TR-FRET Thyroid Receptor alfa Coactivator Assay (in vitro binding activity); conditions: TR alfa-LBD
T1 construct: 5 μL of 4×TR beta/alfa-LBD; purchased Invitrogen PV4687
Protocol: (§1) 2. Detection of the Binding Activity of the Compound of the Present Invention to TRα or TRβ In Vitro
(§2) Test Materials • LanthaScreen TR-FRET Thyroid Receptor beta Coactivator Assay kit was purchased from Invitrogen, Cat. No. PV4686; • LanthaScreen TR-FRET Thyroid Receptor alfa Coactivator Assay kit was purchased from Invitrogen, Cat. No. PV4687.
(§3) The method was experimented with LanthaScreen TR-FRET Thyroid Receptor beta/alfa Coactivator Assay kit. The test compound was dissolved in DMSO and diluted 3 times to a total of 10 concentrations, and then diluted with TR-FRET Coregulator Buffer C in the kit to form a solution containing 2% DMSO, 10 μL of the solution containing 2% DMSO was taken into a 384-well plate, then 5 μL of 4×TR beta/alfa-LBD, 5 μL of a mixture containing 0.4 μM fluorescein-SRC2-2 and 8 nM Tb anti-GST antibody were added into each well, mixed thoroughly, and incubated at room temperature for 1 h in the dark. After 1 h, BMG LABTECH's PHERAstar FSX microplate reader was used to read the fluorescence value (RFU) at […]. The TR-FRET ratio was calculated by dividing the emission signal at 520 nm by the emission signal at 495 nm. Graph Pad Prism 5 software was used to draw the curve and calculate the EC50 value. The in vitro binding activity test results of some of the compounds of the examples of the present invention are shown in Table 1 below.

TRβ = biological target: T2, TRβ (Homo sapiens, UniProt P10828); test: LanthaScreen TR-FRET Thyroid Receptor beta Coactivator Assay (in vitro binding activity); conditions: TR beta-LBD
T2 construct: 5 μL of 4×TR beta/alfa-LBD; purchased Invitrogen PV4686
T2 sequence (P10828 217-461 limits assumed): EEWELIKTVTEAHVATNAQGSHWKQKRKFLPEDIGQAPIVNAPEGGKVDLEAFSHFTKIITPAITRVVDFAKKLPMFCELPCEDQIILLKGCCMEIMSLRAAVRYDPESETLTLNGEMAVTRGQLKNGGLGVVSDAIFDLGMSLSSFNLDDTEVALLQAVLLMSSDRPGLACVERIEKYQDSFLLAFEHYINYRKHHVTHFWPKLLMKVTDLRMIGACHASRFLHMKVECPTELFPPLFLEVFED
Protocol: as §1, §2, §3

[1] = Pharmacokinetic determination in SD rats (i.v. and i.g.); type: in vivo; conditions: for AUC(0-inf) / AUC(0-t) / Cmax / clearance / half-life / Vd: male, Sprague-Dawley (SD), rat, plasma; for Vd: read-out: VSS
Description: Test purposes: The following method was used to determine the pharmacokinetics of the compound of the present invention.
Test Materials: • Experimental reagents and test samples used: Propranolol (internal standard), methanol, ammonium acetate, K2EDTA (potassium ethylenediaminetetraacetic acid), formic acid, acetonitrile MTBE (methyl tert-butyl ether). KolliphorHS15 (macrogol 12 hydroxystearate), DMSO (dimethyl sulfoxide) are commercially available • SD rats: male, 180-220 g, 7-8 weeks old, purchased from Human Slack Experimental Animal Co., Ltd.
Each test sample prepared was completely dissolved in a mixture of 5% DMSO+5% KolliphorHS 15+90% Saline according solubility property thereof.
Samples were processed by liquid-liquid extraction, chromatographically separated, quantitatively analyzed by multiple reaction ion monitoring (MRM) on a triple quadrupole tandem mass spectrometer, and the concentration of the results was calculated by instrument quantitative software.
30 μL of plasma sample was precisely pipetted, added with 250 μL of internal standard, and vortexed to mix thoroughly. Plasma samples was extracted once with 1 mL of MTBE, centrifuged at 13,000 rpm for 2 min at 4° C. 800 μL of the supernatant was sucked out, evaporated to dryness in a 96-well nitrogen blower, and the residue was reconstituted with 150 μL of methanol/water (v/v=50/50), vortexed to mix, and injected with an injection volume of 8 μL.
LC/MS/MS method was used to determine the content of the test compound in rat plasma after administration of different compounds.
Pharmacokinetic parameters were calculated using a noncompartmental method by WinNonLin 6.1 software.

T1 sequence (P10827 163-410 isoform P10827-2 limits assumed, other chains not shown): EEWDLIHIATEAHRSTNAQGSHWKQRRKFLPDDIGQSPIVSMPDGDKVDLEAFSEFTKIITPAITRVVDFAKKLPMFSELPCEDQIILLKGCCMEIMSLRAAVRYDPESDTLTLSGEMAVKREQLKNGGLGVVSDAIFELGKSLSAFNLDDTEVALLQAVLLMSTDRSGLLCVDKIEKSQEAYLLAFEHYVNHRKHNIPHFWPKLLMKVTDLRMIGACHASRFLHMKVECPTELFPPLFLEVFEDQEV

Compound	EC50 (TRα) [µM]	EC50 (TRβ) [µM]	F ([1]; ig, 5 mg/kg) [%]	AUC(0-inf) ([1]; iv, 1 mg/kg) [µg·h/mL]	AUC(0-t) ([1]; iv, 1 mg/kg) [µg·h/mL]	Cmax ([1]; iv, 1 mg/kg) [µg/mL]	clearance ([1]; iv, 1 mg/kg) [L/h/kg]	half-life ([1]; iv, 1 mg/kg) [h]	Vd ([1]; iv, 1 mg/kg) [L/kg]	AUC(0-inf) ([1]; po, ig, 5 mg/kg) [µg·h/mL]	AUC(0-t) ([1]; po, ig, 5 mg/kg) [µg·h/mL]	Cmax ([1]; po, ig, 5 mg/kg) [µg/mL]	half-life ([1]; po, ig, 5 mg/kg) [h]
O=C1c2ccc(Oc3c(Cl)cc(-n4ncc(=O)[nH]c4=O)cc3Cl)cc2CCN1Cc1ccc(C(F)(F)F)cc1 [Example 29, 2-(3,5-dichloro-4-((1-oxo-2-(4-(trifluoromethyl)benzyl)-1,2,3,4-tetrahydroisoquinolin-6-yl)oxy)phenyl)-1,2,4-triazine-3,5(2H,4H)-dione]	> 100	0.091	66.2	56	48.7	4.27	0.0178	8.47	0.194	236	159	10.3	14.1
O=C1c2ccc(Oc3c(Cl)cc(-n4ncc(=O)[nH]c4=O)cc3Cl)cc2CCN1c1ccc(F)cc1 [Example 28]	> 100	0.017	97.6	9.64	8.73	8.4	0.104	2.91	0.246	47	47	15.5	2.29
Cc1ccc(CN2CCc3cc(Oc4c(Cl)cc(-n5ncc(=O)[nH]c5=O)cc4Cl)ccc3C2=O)cc1 [Example 21, 2-(3,5-dichloro-4-((2-(4-methylbenzyl)-1-oxo-1,2,3,4-tetrahydroisoquinolin-6-yl)oxy)phenyl)-1,2,4-triazine-3,5(2H,4H)-dione]	> 100	0.019	81.9	1.02	1.02	2.76	0.978	1.02	0.308	4.18	4.16	4.73	1.44
O=C1c2ccc(Oc3c(Cl)cc(-n4ncc(=O)[nH]c4=O)cc3Cl)cc2CCN1c1ccccc1F [Example 44, 2-(3,5-dichloro-4-((2-(2-fluorophenyl)-1-oxo-1,2,3,4-tetrahydroisoquinolin-6-yl)oxy)phenyl)-1,2,4-triazine-3,5(2H,4H)-dione]	> 100	0.0097	133.3	2.15	2.11	5.43	0.464	2.11	0.4	14.3	13.9	9.03	1.64
O=C1c2ccc(Oc3c(Cl)cc(-n4ncc(=O)[nH]c4=O)cc3Cl)cc2CCN1Cc1ccc(Cl)cc1 [Example 37, 2-(3,5-dichloro-4-((2-(4-chlorobenzyl)-1-oxo-1,2,3,4-tetrahydroisoquinolin-6-yl)oxy)phenyl)-1,2,4-triazine-3,5(2H,4H)-dione]	> 100	0.043	116.3	21.1	20.9	4.2	0.0473	3.61	0.212	122	121	12.3	3.5
O=C1c2ccc(Oc3c(Cl)cc(-n4ncc(=O)[nH]c4=O)cc3Cl)cc2CCN1Cc1cccc(C(F)(F)F)c1 [Example 34, 2-(3,5-dichloro-4-((2-(3-(trifluoromethyl)benzyl)-1-oxo-1,2,3,4-tetrahydroisoquinolin-6-yl)oxy)phenyl)-1,2,4-triazine-3,5(2H,4H)-dione]	> 100	0.021	111	22.4	18.8	3.02	0.0446	9.87	0.531	124	110	8.46	7.67
N#Cc1nn(-c2cc(Cl)c(Oc3ccc4c(c3)CCN(COCC(F)(F)F)C4=O)c(Cl)c2)c(=O)[nH]c1=O [Example 14, 2-(3,5-Dichloro-4-((1-oxo-2-((2,2,2-trifluoroethoxy)methyl)-1,2,3,4-tetrahydroisoquinolin-6-yl)oxy)phenyl)-3,5-dioxo-2,3,4,5-tetrahydro-1,2,4-triazine-6-carbonitrile]	0.226	0.03	–	–	–	–	–	–	–	–	–	–	–
CCN1CCc2cc(Oc3c(Cl)cc(-n4nc(C#N)c(=O)[nH]c4=O)cc3Cl)ccc2C1=O [Example 5, 2-(3,5-dichloro-4-((2-ethyl-1-oxo-1,2,3,4-tetrahydroisoquinolin-6-yl)oxy)phenyl)-3,5-dioxo-2,3,4,5-tetrahydro-1,2,4-triazine-6-carbonitrile]	0.074	0.014	–	–	–	–	–	–	–	–	–	–	–
N#Cc1nn(-c2cc(Cl)c(Oc3ccc4c(c3)CCN(Cc3ccccc3F)C4=O)c(Cl)c2)c(=O)[nH]c1=O [Example 33d, 2-(3,5-Dichloro-4-((2-(2-fluorobenzyl)-1-oxo-1,2,3,4-tetrahydroisoquinolin-6-yl)oxy)phenyl)-3,5-dioxo-2,3,4,5-tetrahydro-1,2,4-triazine-6-carbonitrile]	> 100	0.11	–	–	–	–	–	–	–	–	–	–	–
N#Cc1nn(-c2cc(Cl)c(Oc3ccc4c(c3)CCN(C=O)C4=O)c(Cl)c2)c(=O)[nH]c1=O [Example 51, 2-(3,5-dichloro-4-((2-formyl-1-oxo-1,2,3,4-tetrahydroisoquinolin-6-yl)oxy)phenyl)-3,5-dioxo-2,3,4,5-tetrahydro-1,2,4-triazine-6-carbonitrile]	> 100	0.904	–	–	–	–	–	–	–	–	–	–	–
N#Cc1nn(-c2cc(Cl)c(Oc3ccc4c(c3)CCN(c3cccnc3)C4=O)c(Cl)c2)c(=O)[nH]c1=O [Example 49f, 2-(3,5-dichloro-4-((1-oxo-2-(pyridin-3-yl)-1,2,3,4-tetrahydroisoquinolin-6-yl)oxy)phenyl)-3,5-dioxo-2,3,4,5-tetrahydro-1,2,4-triazine-6-carbonitrile]	> 100	0.769	–	–	–	–	–	–	–	–	–	–	–
O=C1c2ccc(Oc3c(Cl)cc(-n4ncc(=O)[nH]c4=O)cc3Cl)cc2CCN1c1ccncc1 [Example 48, 2-(3,5-dichloro-4-((1-oxo-2-(pyridin-4-yl)-1,2,3,4-tetrahydroisoquinolin-6-yl)oxy)phenyl)-1,2,4-triazine-3,5(2H,4H)-dione]	0.558	0.065	–	–	–	–	–	–	–	–	–	–	–
O=C1c2ccc(Oc3c(Cl)cc(-n4ncc(=O)[nH]c4=O)cc3Cl)cc2CCN1CC1CCOCC1 [Example 23, 2-(3,5-dichloro-4-((1-oxo-2-((tetrahydro-2H-pyran-4-yl)methyl)-1,2,3,4-tetrahydroisoquinolin-6-yl)oxy)phenyl)-1,2,4-triazine-3,5(2H,4H)-dione]	0.386	0.013	–	–	–	–	–	–	–	–	–	–	–
N#Cc1nn(-c2cc(Cl)c(Oc3ccc4c(c3)NC(=O)CC4)c(Cl)c2)c(=O)[nH]c1=O [Example 8, 2-(3,5-dichloro-4-((2-oxo-1,2,3,4-tetrahydroquinolin-7-yl)oxy)phenyl)-3,5-dioxo-2,3,4,5-tetrahydro-1,2,4-triazine-6-carbonitrile]	> 100	> 10	–	–	–	–	–	–	–	–	–	–	–
CN1CCc2cc(Oc3c(Cl)cc(-n4nc(C#N)c(=O)[nH]c4=O)cc3Cl)ccc2C1=O [Example 2, 2-(3,5-dichloro-4-((2-methyl-1-oxo-1,2,3,4-tetrahydroisoquinolin-6-yl)oxy)phenyl)-3,5-dioxo-2,3,4,5-tetrahydro-1,2,4-triazine-6-carbonitrile]	1.47	0.1	–	–	–	–	–	–	–	–	–	–	–
